In patent US6960594B2, “Thiophene and furan 2,5-dicarboxamides useful in the treatment of cancer” (Shire BioChem Inc., priority 1998, dated 2005):
Where “and” joins values, the source holds several entries; their conditions need not be identical. Equal entries are not always repeated.

Tests used:
placental αvβ3 = target: T1, placental αvβ3 (Homo sapiens, UniProt P05106+P06756); test: Fibrinogen binding to immobilized αvβ3
T1 construct: placental αvβ3 at 0.5 ug/mL; from tissue; host or cells: placenta
T1 sequence (P06756 31-889 limits assumed): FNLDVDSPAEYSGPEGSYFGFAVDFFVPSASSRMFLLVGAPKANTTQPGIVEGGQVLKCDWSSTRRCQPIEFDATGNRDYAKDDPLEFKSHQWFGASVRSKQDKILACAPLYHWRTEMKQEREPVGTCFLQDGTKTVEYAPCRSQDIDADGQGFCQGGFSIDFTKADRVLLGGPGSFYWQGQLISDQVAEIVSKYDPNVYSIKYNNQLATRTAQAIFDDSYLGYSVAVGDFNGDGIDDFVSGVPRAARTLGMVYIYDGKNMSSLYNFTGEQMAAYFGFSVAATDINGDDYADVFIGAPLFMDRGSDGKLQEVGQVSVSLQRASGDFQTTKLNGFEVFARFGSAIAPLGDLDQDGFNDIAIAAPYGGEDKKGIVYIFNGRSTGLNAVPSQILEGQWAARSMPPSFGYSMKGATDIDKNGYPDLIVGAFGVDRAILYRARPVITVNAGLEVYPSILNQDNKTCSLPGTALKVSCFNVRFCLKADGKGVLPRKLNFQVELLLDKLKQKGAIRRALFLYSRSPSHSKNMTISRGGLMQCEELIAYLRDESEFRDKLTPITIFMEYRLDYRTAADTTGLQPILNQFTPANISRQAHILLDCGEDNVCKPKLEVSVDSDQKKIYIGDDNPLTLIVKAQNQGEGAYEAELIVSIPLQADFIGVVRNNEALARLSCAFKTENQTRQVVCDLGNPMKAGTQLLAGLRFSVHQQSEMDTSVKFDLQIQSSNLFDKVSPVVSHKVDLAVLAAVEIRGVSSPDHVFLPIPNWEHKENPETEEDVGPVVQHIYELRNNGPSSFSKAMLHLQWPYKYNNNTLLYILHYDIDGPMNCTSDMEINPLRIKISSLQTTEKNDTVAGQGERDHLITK
T1 sequence (P06756 891-1048 partner limits assumed): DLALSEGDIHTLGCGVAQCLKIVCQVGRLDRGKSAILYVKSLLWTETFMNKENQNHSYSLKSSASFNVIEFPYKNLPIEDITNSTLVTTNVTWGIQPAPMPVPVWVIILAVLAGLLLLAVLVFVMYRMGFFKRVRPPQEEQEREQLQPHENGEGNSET
T1 sequence (P05106 27-788): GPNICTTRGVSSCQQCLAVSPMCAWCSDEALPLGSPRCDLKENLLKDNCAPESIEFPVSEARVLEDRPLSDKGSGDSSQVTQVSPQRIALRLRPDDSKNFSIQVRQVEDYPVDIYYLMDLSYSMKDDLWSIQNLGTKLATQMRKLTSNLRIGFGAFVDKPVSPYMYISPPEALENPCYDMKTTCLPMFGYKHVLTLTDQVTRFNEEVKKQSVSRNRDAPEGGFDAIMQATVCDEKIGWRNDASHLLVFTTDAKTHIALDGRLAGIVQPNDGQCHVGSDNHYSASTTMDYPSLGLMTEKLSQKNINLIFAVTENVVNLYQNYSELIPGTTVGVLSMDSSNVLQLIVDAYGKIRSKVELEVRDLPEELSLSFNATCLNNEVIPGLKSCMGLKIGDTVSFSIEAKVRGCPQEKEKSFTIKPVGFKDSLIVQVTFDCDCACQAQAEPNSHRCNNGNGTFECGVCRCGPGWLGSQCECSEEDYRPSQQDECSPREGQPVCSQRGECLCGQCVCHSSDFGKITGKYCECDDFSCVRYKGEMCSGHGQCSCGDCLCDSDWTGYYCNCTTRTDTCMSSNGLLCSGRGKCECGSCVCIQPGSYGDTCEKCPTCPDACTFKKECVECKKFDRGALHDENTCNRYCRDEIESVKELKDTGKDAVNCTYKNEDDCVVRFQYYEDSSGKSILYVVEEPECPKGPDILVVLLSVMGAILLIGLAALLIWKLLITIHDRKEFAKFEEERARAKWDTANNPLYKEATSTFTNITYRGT
Experimental: (§1) The wells of plastic microtiter plates were coated overnight at 4° C. with purified active αIIbβ3 (Calbiochem) or placental αvβ3 at 0.5 ug/mL (100 uL/well) in a buffer containing 150 mM NaCl, 20 mM Tris, pH 7.4, 1 mM MgCl2, 0.2 mM MnCl2, and including 1 mM CaCl2 for αIIbβ3. Blocking of nonspecific sites was achieved by incubating the wells with 35 mg/mL bovine serum albumin (BSA) for at least 2 hours at 37° C. Biotinylated-fibrinogen (10 nM) was added in 0.2 mL binding buffer (100 mM NaCl, 50 mM Tris, pH 7.4, 1 mM MgCl2, 0.2 mM MnCl2 and 1 mg/mL BSA including 1 mM CaCl2 for αIIbβ3) to the wells in triplicate in the absence or presence of increasing concentrations of compounds of interest (0.001-100 uM) and further incubated for 2 hours at 37° C. Nonbound fibrinogen was removed by five washes with binding buffer. Avidin conjugated to alkaline phosphatase (Sigma), diluted in binding buffer, was added and incubated for two hours at 37° C. The plates were washed five times with binding buffer, and after addition of the substrate PNPP (Pierce), the enzyme activity was measured by the absorbance at 405 nm.

GP IIb-IIIa (αIIbβ3) = target: T2, GP IIb-IIIa (αIIbβ3) (Homo sapiens, UniProt P05106+P08514); test: Fibrinogen binding to immobilized GP IIb-IIIa (αIIbβ3)
T2 construct: purchased Calbiochem
T2 sequence (P08514 32-887 limits assumed): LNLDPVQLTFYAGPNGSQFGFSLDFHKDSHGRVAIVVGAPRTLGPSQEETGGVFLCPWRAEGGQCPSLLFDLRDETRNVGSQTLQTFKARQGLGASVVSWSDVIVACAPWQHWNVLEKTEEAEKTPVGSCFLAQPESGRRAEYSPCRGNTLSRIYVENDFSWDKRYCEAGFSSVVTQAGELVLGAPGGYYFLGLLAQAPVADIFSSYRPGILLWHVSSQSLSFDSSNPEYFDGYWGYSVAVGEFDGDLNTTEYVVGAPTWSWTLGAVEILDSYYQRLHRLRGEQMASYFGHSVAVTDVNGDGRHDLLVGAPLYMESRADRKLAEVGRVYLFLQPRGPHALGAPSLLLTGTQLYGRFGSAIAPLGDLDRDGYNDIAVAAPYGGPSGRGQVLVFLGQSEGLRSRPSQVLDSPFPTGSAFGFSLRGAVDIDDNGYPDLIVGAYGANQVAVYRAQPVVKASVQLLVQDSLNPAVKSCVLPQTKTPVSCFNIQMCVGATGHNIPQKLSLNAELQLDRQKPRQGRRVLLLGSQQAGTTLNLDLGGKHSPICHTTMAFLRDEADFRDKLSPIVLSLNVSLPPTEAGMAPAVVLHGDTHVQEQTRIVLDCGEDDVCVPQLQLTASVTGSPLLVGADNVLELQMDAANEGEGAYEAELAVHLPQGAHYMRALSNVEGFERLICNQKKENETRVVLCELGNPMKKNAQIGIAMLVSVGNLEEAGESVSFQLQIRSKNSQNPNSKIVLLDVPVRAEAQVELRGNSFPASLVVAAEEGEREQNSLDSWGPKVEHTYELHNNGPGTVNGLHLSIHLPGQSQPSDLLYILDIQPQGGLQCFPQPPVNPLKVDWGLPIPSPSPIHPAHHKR
T2 sequence (P08514 891-1039 partner limits assumed): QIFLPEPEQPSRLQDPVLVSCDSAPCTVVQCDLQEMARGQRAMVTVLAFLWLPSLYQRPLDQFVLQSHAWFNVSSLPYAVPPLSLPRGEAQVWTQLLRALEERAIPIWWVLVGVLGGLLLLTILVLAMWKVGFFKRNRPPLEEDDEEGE
T2 sequence (P05106 27-788): as the sequence (P05106 27-788) above
Experimental: as §1

HT29 = test: Cell proliferation and cytotoxicity MTT assay, HT29; format: cell-based; details: Homo sapiens, HT-29, 72 hours culture
Experimental: The wells of microtiter plates were seeded with 2000 cells/well T24, 2500 cells/well HT29 or 5000 cells/well HMVEC (Cell Systems) in 100 uL, followed by an overnight culture for cell adhesion. The next day, the media is supplemented with 100 uL of 10-fold dilution of compound of interest starting at 10 uM. Following culture for 72 hours, 3-(4,5-dimethyl-2-thiazolyl)-2,5-diphenyltetrazolium bromide (MTT; Sigma) at 2 mg/mL was added to each well (50 uL/well) and further incubated for 4 hours at 37° C. The medium was flicked out and 200 uL of a 1:1 solution of ethanol:acetone followed by 25 uL of glycine buffer (0.1 M glycine, 0.1M NaCl, pH 10.5) is added and the color measured by the absorbance at 570 nm.

[1] = tested on: Human non small-cell lung cancer cell line H460; test: Inhibition of metastasis in angiomouse/metamouse human lung cancer model of H460; format: in vivo, athymic BALB/c nude mice
Experimental: Male and female athymic BALB/c nude mice between 4 and 5 weeks of age were used. The animals were bred and maintained in an HEPA-filtered environment with cages, food and bedding sterilized by autoclaving. The breeding pairs were obtained from the Charles River Laboratories (Wilmington, Mass.). The animal diets were obtained from Harlan Teklab (Madison, Wis.). Ampicillin (Sigma, St Louis, Mo.) 5.0% (v/v) was added to the autoclaved drinking water.
Compound VII was tested and AGM-1470 (chloroacetyl-(3R,4S,5S,6R)-5-methoxy-4-[(2R,3R)-2-methyl-3-(3-methyl-2-butenyl)oxiranyl]-1-oxaspiro[2.5]oct-6-yl ester carbamic acid) was used as a positive control. [drawing 51] The compounds were dissolved using PEG400 with heating and sonicatin. The solutions were then diluted with saline to obtain the desired concentrations (30%/70%) and stored at −20° C.
Human non small-cell lung cancer cell line H460 with expression of green fluorescent protein was obtained from the National Cancer Institute. The cells were transfected with vectors carrying the green fluorescent protein (GFP) gene. The cell line was propagated by subcutaneous implantation in nude mice.
Test animals were transplanted by surgical orthotopic implantation (SOI) using fragments harvested from subcutaneaous tumor stock animals. The animals were anesthetized with isoflurane and the surgical area was sterilized using iodine solution and alcohol. A left thoracotomy was made along the 4th intercostal space using a pair of scissors. Two pieces of H460 tumor tissue of one cubic millimiter each were sutured to the left lung using an 8-0 nylon surgical suture. The thorax was closed using a sterile 6-0 silk suture. A sterile 3-cc syringe with a 25-gauge needle was used to remove the air and inflate the lung. All surgical and animal manipulations and procedures were conducted under HEPA-filtered laminar flow hoods.
Extra numbers of mice were transplanted to compensate for postsurgical losses. The orthotopically transplanted animals used were selected to establish groups of similar mean body weight. Groups for each of the cohort conditions wre randomly chosen. The cohort was grouped as follows. A total of 10 mice were used for each dosage regimen. Administration of test compounds and vehicle by subcutaneous injection was begun three days after the orthotopic implantation.
Two animals for each treatment group were sacrificed at day-14 after orthotopic implantation of H460. The remaining animals for each group were sacrificed at day-28 after implantation. The sacrificed animals were evaluated for primary and secondary tumors. Gross examination for distant metastasis was conducted at necropsy. Tissue samples of the primary tumor and those from relevant organs such as the lung, the liver and the lymph nodes wre processed through standards procedures of hematoxylin and eosin staining for subsequent microscopic examination.
The mediastinal lymph nodes, the liver and the lung in each animal were collected. The sampled tissues were sectioned and stained, then microscopically examined. The fisher-exact test was performed to compare distant metastasis to these organs in the treated and the controls. […]

[2] = Group C, 5 mg/kg SC 2 times/day

For `NCCCNC(=O)c1ccc(C(=O)NC(CC(=O)O)c2ccccc2)s1.O=C(O)C(F)(F)F` (stereo not shown) [Compound VII, 3-{[5-(3-Amino-propylcarbamoyl)-thiophene-2-carbonyl]-amino}-3-phenyl-propionic acid trifluoroacetic acid salt], the IC50 (placental αvβ3) was 6.6 µM, the IC50 (GP IIb-IIIa (αIIbβ3)) was 13.7 µM and the IC50 (HT29) was > 10 µM. For the same compound, the “Incidence of lung metastasis” value [1, 2] was 1/10, the “Incidence of lymph node metastasis” value [1, 2] was 2/10 and the “Incidence of lymph node metastasis” value ([1]; Group D, 50 mg/kg SC 2 times/day) was 3/10. For the same compound, the “Incidence of lung metastasis” value ([1]; Group D, 50 mg/kg SC 2 times/day, trifluoroacetic acid salt, 50 mg/kg) was “no lung metastasis and 0/10”.
